Drawing on patent US6436962B1, “Arylhydantoin derivatives and uses thereof” (Merck & Co., Inc., priority 1999, dated 2002), this text covers Ki and melting point for 15 compounds.

Data set [1] deals with T1, human alpha 1a adrenergic receptor (Homo sapiens, UniProt P35348).
T1 sequence (P35348 1-466): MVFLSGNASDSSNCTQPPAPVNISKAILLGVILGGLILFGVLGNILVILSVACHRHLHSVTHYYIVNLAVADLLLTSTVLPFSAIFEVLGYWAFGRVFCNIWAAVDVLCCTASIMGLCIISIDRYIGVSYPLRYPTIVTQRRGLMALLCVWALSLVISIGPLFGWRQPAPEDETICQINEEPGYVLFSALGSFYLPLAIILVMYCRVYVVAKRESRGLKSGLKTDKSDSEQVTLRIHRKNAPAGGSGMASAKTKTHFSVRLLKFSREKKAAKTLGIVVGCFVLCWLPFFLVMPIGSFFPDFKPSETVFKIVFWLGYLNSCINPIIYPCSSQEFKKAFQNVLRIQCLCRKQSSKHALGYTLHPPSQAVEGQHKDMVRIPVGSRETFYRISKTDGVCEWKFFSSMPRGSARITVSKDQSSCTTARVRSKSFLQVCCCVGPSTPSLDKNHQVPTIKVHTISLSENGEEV
Nature of the data set: Screening assay: alpha 1a adrenergic receptor binding ([125I]-HEAT competition). The settings on record: membranes from stably transfected human alpha 1a cell line (ATCC CRL 11140), 100 pM [125I]-HEAT. Here is the method:
Screening Assay: Alpha 1a Adrenergic Receptor Binding
These competition binding reactions (total volume=200 μl) contained 50 mM Tris-HCl pH. […] Reactions were incubated at room temperature for one hour with shaking. Reactions were filtered onto Whatman GF/C glass fiber filters with a Inotec 96 well cell harvester. Filters were washed three times with ice cold buffer and bound radioactivity was determined (Ki).

Counter-ions that a name gives are not always drawn.

In the case of `Cc1ccc(C2(c3ccc(C)cc3)NC(=O)N(CCCN3CCC(C#N)(c4ccccc4C)CC3)C2=O)cc1` [Compound 2, 3-{3-[4-(2-Methylphenyl)-4-cyanopiperidin-1-yl]propyl}-5,5-bis(4-methylphenyl)-imidazolin-2,4-dione], the melting point (usually the temperature, or range, at which the solid turns liquid) lay in the range of 164 to 165 °C. The Ki (as a rule, the dissociation constant of the complex between target and ligand, obtained from inhibition or displacement) in data set [1] was < 20 nM. Take `COC(=O)C1CN(CCCN2C(=O)NC(c3ccc(C)cc3)(c3ccc(C)cc3)C2=O)CCC1Nc1ccccc1Cl.Cl` (racemic): the melting point lay within 160 to 163 °C. Consider `Cc1ccc(C2(c3ccc(C)cc3)NC(=O)N(CCCCN3CCC4(CC3)C(=O)Cc3ccccc34)C2=O)cc1` [Compound 19, 3-{4-(2,3-dihydro-spiro[indeno-1,4′-piperidin]-2(3H)-on-1′-yl)butyl}-5,5-bis(4-methylphenyl)-imidazolin-2,4-dione], for which the melting point lay in the range of 76 to 88 °C. Besides, in data set [1], the Ki was < 20 nM.

With `COCN1C(=O)N(CCCN2CCC(C#N)(c3ccccc3C)CC2)C(=O)C1(c1ccc(C)cc1)c1ccc(C)cc1`, the melting point lay in the range of 53 to 55 °C. Still for that read-out and setting: the figure for `CC1(c2ccccc2)NC(=O)N(CCCN2CCC(C#N)(c3ccccc3)CC2)C1=O` (racemic) (as salt: hydrochloride) is 222 to 223 °C.

As for `Cc1ccc(C2(c3ccc(C)cc3)NC(=O)N(CCCN3CCN(c4ccccc4C#N)CC3)C2=O)cc1` (as salt: hydrochloride) [Compound 27, 3-{3-[4-(2-cyanophenyl)-piperazin-1-yl]propyl}-5,5-bis(4-methylphenyl)-imidazolin-2,4-dione hydrochloride], the melting point was determined as 236 °C. Compound `Cc1ccc(C2(c3ccc(C)cc3)NC(=O)N(CCCN3CCC4(CC3)C(=O)N(C)c3ccccc34)C2=O)cc1` [Compound 22, 3-{3-(1-methyl-spiro[3H-indole-3,4′piperidin]-2(1H)-on-1′-yl)propyl}-5,5-bis(4-methylphenyl)-imidazolin-2,4-dione] gave a melting point of 127 to 135 °C. Further, in data set [1], the Ki is < 20 nM. `Cc1ccc(C2(c3ccc(C)cc3)NC(=O)N(CCCN3CCC(n4c(=O)[nH]c5cc(Cl)ccc54)CC3)C2=O)cc1` [Compound 34, 3-{3-[4-(5-chloro-2-oxo-1-benzimidazolinyl)piperidin-1-yl]propyl}-5,5-bis(4-methylphenyl)-imidazolin-2,4-dione] came in with a melting point of 144 to 155 °C. In turn, `Cc1ccc(C2(c3ccc(C)cc3)NC(=O)N(CCCN3CCN(c4ccccc4C(N)=O)CC3)C2=O)cc1` (as salt: hydrochloride) [Compound 25, 3-{3-[4-(2-aminocarbonylphenyl)-piperazin-1-yl]propyl}-5,5-bis(4-methylphenyl)-imidazolin-2,4-dione dihydrochloride] came in with a melting point of 160 to 163 °C. For the compound `N#CC1(c2ccccc2)CCN(CCCN2C(=O)NC(c3ccccc3)(c3ccccc3)C2=O)CC1` [Compound 15, 3-[3-(4-phenyl-4-cyanopiperidin-1-yl)propyl]-5,5-bis(phenyl)-imidazolin-2,4-dione], the melting point is 161 to 163 °C. Also, in data set [1], the Ki was < 20 nM. For the compound `CCOC(=O)CN1C(=O)N(CCCN2CCC(C#N)(c3ccccc3C)CC2)C(=O)C1(c1ccc(C)cc1)c1ccc(C)cc1` [Compound 35, 1 -Ethoxycarbonylmethyl-3-{3-[4-(2-methylphenyl)-4-cyanopiperidin-1-yl]propyl}bis-5,5-(4-methylphenyl)-imidazolin-2,4-dione], the melting point was in the range of 63 to 65 °C. With `Cc1ccc(C2(c3ccc(C)cc3)NC(=O)N(CCCN3CCC4(CC3)Cc3ccccc3C4=O)C2=O)cc1` [Compound 20, 3-{3-(2,3-dihydro-spiro[indeno-2,4′-piperidin]-1(2H)-on-1-yl)propyl}-5,5-bis(4-methylphenyl)-imidazolin-2,4-dione], the melting point is 201 to 205 °C. In addition, in data set [1], the inhibition constant (Ki) was < 20 nM. As to `Cc1ccc(C2(c3ccc(C)cc3)NC(=O)N(CCCN3CCC4(CC3)C(=O)Nc3ccccc34)C2=O)cc1` (as salt: hydrochloride) [Compound 21, 3-{3-(spiro[3H-indole-3,4′-piperidin]-2(1H)-on-1′-yl)propyl}-5,5-bis(4-methylphenyl)-imidazolin-2,4-dione hydrochloride], the melting point is > 210 °C.

As for `Cc1ccc(C2(c3ccc(C)cc3)NC(=O)N(CCCN3CCC4(CCc5ccccc54)CC3)C2=O)cc1` [Compound 18, 3-{3-(2,3-dihydro-spiro[indeno-1,4′-piperidin]-1′yl)propyl}-5,5-bis(4-methylphenyl)-imidazolin-2,4-dione], the melting point lay in the range of 170 to 172 °C. Moreover, the Ki in data set [1] is < 20 nM. For `Cc1ccc(C2(c3ccc(C)cc3)NC(=O)N(CCCN3CCN(c4ccccc4C#N)CC3)C2=O)cc1` [Compound 27, 3-{3-[4-(2-cyanophenyl)-piperazin-1-yl]propyl}-5,5-bis(4-methylphenyl)-imidazolin-2,4-dione hydrochloride], the Ki in data set [1] was < 20 nM.
